Values of other authors as cited in patent US20080138412A1, “Sustained release alfuzosin hydrochl formulation and method for their production” (priority 2006, published 2008).
Where a name gives a salt, the structure may show the parent alone.

**Q.** Which half-life does the source give for `COc1cc2nc(N(C)CCCNC(=O)C3CCCO3)nc(N)c2cc1OC` (stereo not shown) [Alfuzosin hydrochloride] here?
**A.** Its half-life is “about 9 hours”.
